Numbers after ± are expanded uncertainties.
Assay: mn = molality of the nth substance listed, in mol/kg
Settings: 298.15 K, 101 kPa, Liquid

| SMILES | viscosity (m1 = 0.4991) | viscosity (m1 = 1.999) | viscosity (m1 = 3) | viscosity (m1 = 0.1003) | viscosity (m1 = 0.4995) | viscosity (m1 = 0.7497) | viscosity (m1 = 1) |
| --- | --- | --- | --- | --- | --- | --- | --- |
| NCC(=O)O [2-aminoacetic acid] + O | 0.956 ± 0.036 mPa·s | 1.189 ± 0.043 mPa·s | 1.374 ± 0.049 mPa·s | – | – | – | – |
| C[C@H](N)C(=O)O [(S)-2-aminopropanoic acid] + O | – | – | – | 0.918 ± 0.034 mPa·s | 1.017 ± 0.038 mPa·s | 1.079 ± 0.04 mPa·s | 1.152 ± 0.042 mPa·s |

Reference: the NIST ThermoML archive (doi:10.1021/je050048y)
